Key:
[1] = molecular target: human A2b adenosine receptor (Homo sapiens (Human), UniProt P29275); experiment: A2b radioligand filtration binding assay (tritiated proprietary A2b antagonist, HEK293 membranes); settings: unstarred values: radioligand binding
Summary of the method: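 Displacement of a tritiated proprietary A2b antagonist from membranes of HEK293 cells recombinantly expressing human A2b receptor, measured by filtration and scintillation counting. Percent effect was normalized to total and non-specific binding and fitted with a 4-parameter logistic to give IC50.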

[2] = molecular target: human A2a adenosine receptor (Homo sapiens (Human), UniProt P29274); experiment: A2a receptor affinity radioligand binding assay ([3H] SCH58261, membranes from HEK293 or CHO cells); settings: unstarred values: radioligand binding
Summary of the method: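 Displacement of tritiated SCH58261 (working dilution 4 nM) from recombinant human A2a receptor membranes (HEK293 or CHO), 60 min at room temperature in Tris pH 7.4/MgCl2 buffer after 15–30 min compound preincubation. Scintillation counting after filtration; normalized percent effect fitted 4-parameter logistic for IC50.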

Sequence of human A2a adenosine receptor (P29274 whole entry): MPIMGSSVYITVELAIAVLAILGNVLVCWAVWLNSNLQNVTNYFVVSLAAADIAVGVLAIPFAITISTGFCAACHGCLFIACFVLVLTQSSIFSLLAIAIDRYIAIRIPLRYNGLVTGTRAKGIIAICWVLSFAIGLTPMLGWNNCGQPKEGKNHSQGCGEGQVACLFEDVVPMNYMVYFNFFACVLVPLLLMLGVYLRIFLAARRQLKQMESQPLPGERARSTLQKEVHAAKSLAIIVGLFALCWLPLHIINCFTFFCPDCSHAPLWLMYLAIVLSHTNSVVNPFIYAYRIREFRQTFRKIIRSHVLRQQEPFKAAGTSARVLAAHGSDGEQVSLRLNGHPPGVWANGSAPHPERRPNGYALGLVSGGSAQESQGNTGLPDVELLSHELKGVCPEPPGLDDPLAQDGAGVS
Sequence of human A2b adenosine receptor (P29275 whole entry): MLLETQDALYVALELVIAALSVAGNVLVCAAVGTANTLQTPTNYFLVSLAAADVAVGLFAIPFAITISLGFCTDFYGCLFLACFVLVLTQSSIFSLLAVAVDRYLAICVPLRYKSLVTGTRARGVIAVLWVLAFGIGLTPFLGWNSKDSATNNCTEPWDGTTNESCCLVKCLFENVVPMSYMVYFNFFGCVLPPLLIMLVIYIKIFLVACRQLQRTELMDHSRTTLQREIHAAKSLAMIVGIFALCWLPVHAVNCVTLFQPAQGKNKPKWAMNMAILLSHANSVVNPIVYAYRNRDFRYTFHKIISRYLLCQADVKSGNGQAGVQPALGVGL

Row | IC50 [1] | IC50 [2] | SMILES
1 | 374 nM | 0.1 nM | COc1cccc2c1nc(N)n1nc([C@@H]3CCCN(c4ncn(CC(C)(C)O)n4)C3)nc21 [Example 64, (R)-1-(3-(3-(5-amino-7-methoxy[1,2,4]triazolo[1,5-c]quinazolin-2-yl)piperidin-1-yl)-1H-1,2,4-triazol-1-yl)-2-methylpropan-2-ol]
2 | 2 nM | 1 nM | COc1cccc2c1nc(N)n1nc([C@@H]3CCCN(c4cn(C)nn4)C3)nc21 [Example 67, (R)-7-methoxy-2-(1-(1-methyl-1H-1,2,3-triazol-4-yl)piperidin-3-yl)-[1,2,4]triazolo[1,5-c]quinazolin-5-amine]
3 | 340 nM | 0.3 nM | COc1cccc2c1nc(N)n1nc([C@@H]3CCCN(c4ncn(C5CCOCC5)n4)C3)nc21 [Example 68, (R)-7-methoxy-2-(1-(1-(tetrahydro-2H-pyran-4-yl)-1H-1,2,4-triazol-3-yl)piperidin-3-yl)-[1,2,4]triazolo[1,5-c]quinazolin-5-amine]
4 | 151 nM | 0.8 nM | COc1cccc2c1nc(N)n1nc([C@@H]3CCCN(c4nn(C)nc4C)C3)nc21 [Example 70, (R)-2-(1-(2,5-dimethyl-2H-1,2,3-triazol-4-yl)piperidin-3-yl)-7-methoxy-[1,2,4]triazolo[1,5-c]quinazolin-5-amine]
5 | 119 nM | 0.9 nM | COc1cccc2c1nc(N)n1nc([C@@H]3CCCN(c4cnn(C5CCOCC5)n4)C3)nc21 [Example 72, (R)-7-methoxy-2-(1-(2-(tetrahydro-2H-pyran-4-yl)-2H-1,2,3-triazol-4-yl)piperidin-3-yl)-[1,2,4]triazolo[1,5-c]quinazolin-5-amine]
6 | 1780 nM | 3.6 nM | COc1cccc2c1nc(N)n1nc([C@@H]3CCCN(c4cn(C)cn4)C3)nc21 [Example 76, (R)-7-methoxy-2-(1-(1-methyl-1H-imidazol-4-yl)piperidin-3-yl)-[1,2,4]triazolo[1,5-c]quinazolin-5-amine]

Further lines, the compound ahead of its results:

Row | SMILES | IC50 [1] | IC50 [2]
7 | COc1cccc2c1nc(N)n1nc([C@@H]3CCCN(c4ccn(C)n4)C3)nc21 [Example 66, (R)-7-methoxy-2-(1-(1-methyl-1H-pyrazol-3-yl)piperidin-3-yl)-[1,2,4]triazolo[1,5-c]quinazolin-5-amine] | 144 nM | 0.7 nM
8 | COc1cccc2c1nc(N)n1nc([C@@H]3CCCN(c4ncn(CC(F)(F)F)n4)C3)nc21 [Example 69, (R)-7-methoxy-2-(1-(1-(2,2,2-trifluoroethyl)-1H-1,2,4-triazol-3-yl)piperidin-3-yl)-[1,2,4]triazolo[1,5-c]quinazolin-5-amine] | 144 nM | 0.6 nM
9 | COc1cccc2c1nc(N)n1nc([C@@H]3CCCN(c4nnc5n4CCNC5)C3)nc21 [Example 71, (R)-7-methoxy-2-(1-(5,6,7,8-tetrahydro-[1,2,4]triazolo[4,3-a]pyrazin-3-yl)piperidin-3-yl)-[1,2,4]triazolo[1,5-c]quinazolin-5-amine] | 5610 nM | 0.2 nM
10 | COc1cccc2c1nc(N)n1nc([C@@H]3CCCN(c4cn(CC(F)(F)F)nn4)C3)nc21 [Example 73, (R)-7-methoxy-2-(1-(1-(2,2,2-trifluoroethyl)-1H-1,2,3-triazol-4-yl)piperidin-3-yl)-[1,2,4]triazolo[1,5-c]quinazolin-5-amine] | 1.9 nM | 0.8 nM
11 | COc1cccc2c1nc(N)n1nc([C@@H]3CCCN(c4cc(C)n(C)n4)C3)nc21 [Example 74, (R)-2-(1-(1,5-dimethyl-1H-pyrazol-3-yl)piperidin-3-yl)-7-methoxy-[1,2,4]triazolol[1,5-c]quinazolin-5-amine] | 3.1 nM | 1 nM
12 | COc1cccc2c1nc(N)n1nc([C@@H]3CCCN(c4cnn(C)n4)C3)nc21 [Example 75, (R)-7-methoxy-2-(1-(2-methyl-2H-1,2,3-triazol-4-yl)piperidin-3-yl)-[1,2,4]triazolo[1,5-c]quinazolin-5-amine] | 11.6 nM | 1 nM

Source: US12263171B2, “7-, 8-, and 10-substituted amino triazolo quinazoline derivatives as adenosine receptor antagonists, pharmaceutical compositions and their use” (Merck Sharp & Dohme LLC, priority 2018, dated 2025)
